Test results: patent EP2100593B1, “Ternary mixtures with increased collagen synthesis” (Symrise AG, priority 2008, dated 2009)
Several values for one entry are separate records, joined by “and”; a condition that tells them apart may be missing. Equal entries are not always repeated.

System: Normal Humane Dermalen Fibroblasten (NHDF)
Test: Collagen synthesis stimulation in aged NHDF monolayer culture, Sirius Red staining (OD 540 nm)
Assay type: cell-based, Human
Conditions: 48 h incubation
Excerpt: Verantwortlich für die Collagensynthese in der Dermis-Schicht der Haut sind Fibroblasten. Als Testsystem werden Normal Humane Dermalen Fibroblasten (NHDF) in einer so genannten Monolayer-Kultur in 96-Well-MTPs kultiviert, über einen definierten Zeitraum mit Testsubstanzen inkubiert und anschließend die Collagenzunahme […] über eine Färbemethode bestimmt.
Das Assay-Prinzip basiert auf der histologischen, spezifischen Anfärbung von löslichem Collagen (vorwiegend Collagen Typ I und III) mit Hilfe des Farbstoffes Sirius Red (Direct Red 80). Sirius Red ist ein anionischer Farbstoff an dessen Seitenketten Sulphonsäuregruppen angelagert sind. Diese Sulphonsäuregruppen reagieren mit den Seitenkettengruppen der im Collagen vorwiegend vorkommenden Aminosäuren (Prolin, Hydroxyprolin, Lysin und Hydroxylysin), wobei eine intakte Collagenstruktur gegeben sein muss. [drawing 1]
Als Vorlage für das Assay-Design dient die bei B.J.Walsh et al., Analytical Biochemistry 203, 187-190 (1992) beschriebene Vorgehensweise zur quantitativen Bestimmung von Collagen im 96-Well Maßstab.
Die Collagensynthese steigernde Wirkung der Testsubstanzen wird an in vitro gealterten (>8. Passage) NHDF in 96-Well Mikrotiterplatten (2*10^4 Zellen pro Well) getestet. Für jedes Prüfmuster muss zuvor ein geeignetes Lösungsmittel ermittelt werden, in dem eine Stocklösung des Prüfmusters angesetzt wird. Die Inkubationslösungen der Testsubstanzen werden anschließend in mit 0,2% BSA supplementiertem DMEM hergestellt. Mögliche Lösungsmittel sollten in allen Verdünnung der Inkubationslösung max. 0,2 %ig vorliegen. Die maximale Einsatzkonzentration der Testsubstanzen resultiert aus den in der Zytotoxizitäts-Untersuchung (Resazurin-Assay an 3T3 Maus Fibroblasten) gewonnen IC20-Werten und ist auf 0,1*IC20 festgelegt.
Nach einer 24h-igen Adaptionsphase der NHDF werden die Zellen für 48 h mit den Inkubationslösungen und entsprechenden Kontroll-Lösungen (Lösungsmittel und Blank) inkubiert (37°C, 5% CO2). […]

[1] = Tabelle 2, Einsatzkonzentration 1.020 mg/ml

SMILES | Collagensynthese Steigerung [%], bezogen auf unbehandelte Kontrolle (Tabelle 1, Einsatzkonzentration 0.362 mg/ml) | Collagensynthese Steigerung [%], bezogen auf unbehandelte Kontrolle [1]
O=C1O[C@H]([C@@H](O)CO)C(O)=C1OP(=O)(O)O [Magnesium Ascorbylphosphat (Bio172), Magnesium Ascorbylphosphat] | 66.97% and 67.44% | 
O=C1O[C@H]([C@@H](O)CO)C([O-])=C1OP(=O)([O-])[O-].O=C1O[C@H]([C@@H](O)CO)C([O-])=C1OP(=O)([O-])[O-].[Mg+2].[Mg+2].[Mg+2] [Magnesium Ascorbylphosphat (Bio1300/1), Magnesium Ascorbylphosphat] |  | 141.13%
O=C1O[C@H]([C@@H](O)CO)C([O-])=C1OP(=O)([O-])[O-].[Na+].[Na+].[Na+] [Natrium Ascorbylphosphat (Bio1586), Natrium Ascorbylphosphat] |  | 144.57%
